Each structure is given as a SMILES string.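 A five-concentration, 48-hour dose response in 96-well plates underlies each endpoint, interpolated linearly between surrounding concentrations. GI50: concentration for 50% inhibition of growth. TGI is the concentration that stops growth completely.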

Some test systems named below: HOP-92 NSCLC; UACC-257 melanoma; SR leukemia; A549 NSCLC; SNB-19 CNS; SK-OV-3 ovarian; NCI-H226 lung; SN12C renal; RXF 393 renal; T-47D breast.
Common to all, as to experiment: growth of human tumour cells (NCI), 48 h

As to `Cn1c2c(c3ccccc31)CC1c3c(c4ccccc4n3C)CC21` (stereo not given), the TGI in the experiment on HOP-92 NSCLC, in the experiment on UACC-257 melanoma, with SR leukemia, in the experiment with A549 NSCLC, in the experiment with SNB-19 CNS and in the experiment with SK-OV-3 ovarian was greater than 100 µM in each case. For the same molecule, the TGI with NCI-H226 lung, with SN12C renal, in the experiment on RXF 393 renal and in the experiment on T-47D breast was greater than 100 µM throughout.

With `Oc1cccnc1CN1CCCCC1`, the TGI in the experiment on HOP-92 NSCLC, in the experiment on UACC-257 melanoma, in the experiment on SR leukemia, in the experiment with A549 NSCLC, in the experiment on SNB-19 CNS and in the experiment on SK-OV-3 ovarian was greater than 100 µM throughout. In addition, the TGI with NCI-H226 lung, in the experiment on SN12C renal, with RXF 393 renal and in the experiment with T-47D breast was greater than 100 µM in each case.

Take `O=C(NC1=CC(=O)c2ccccc2C1=O)c1ccccc1`: the GI50 in the experiment on HOP-92 NSCLC is 0.572 µM; in the experiment with UACC-257 melanoma it was 1.22 µM; in the experiment on SR leukemia, 0.709 µM; with A549 NSCLC it was 2.91 µM; in the experiment with SNB-19 CNS, 2.9 µM; with SK-OV-3 ovarian, 3.06 µM. For the same molecule, the GI50 in the experiment with NCI-H226 lung was 2.67 µM; in the experiment on SN12C renal, 1.49 µM; in the experiment with RXF 393 renal it was 1.4 µM; with T-47D breast, 0.777 µM. Also, the TGI was 2.6 µM in the experiment on HOP-92 NSCLC; 2.57 µM in the experiment on UACC-257 melanoma; 4.85 µM in the experiment with SR leukemia; 16.4 µM with A549 NSCLC; 16.4 µM with SNB-19 CNS; 14.3 µM in the experiment on SK-OV-3 ovarian. The TGI worked out at 15.7 µM in the experiment on NCI-H226 lung, 6.01 µM in the experiment with SN12C renal, 3.12 µM in the experiment on RXF 393 renal and 2.68 µM in the experiment with T-47D breast.

As to `COc1ccc(Cn2cc3c(c2-c2ccccc2)CC(C)(C)c2cnoc2-3)cc1`, the GI50 in the experiment with HOP-92 NSCLC was 1.96 µM; in the experiment with UACC-257 melanoma, 9.64 µM; in the experiment with SR leukemia it was 0.483 µM; with A549 NSCLC, 3.17 µM; with SNB-19 CNS it was 4.96 µM; with SK-OV-3 ovarian, 4.09 µM. In addition, the GI50 was 4.19 µM in the experiment with NCI-H226 lung, 4.46 µM in the experiment with SN12C renal, 2.45 µM with RXF 393 renal and 2.51 µM in the experiment with T-47D breast. The TGI in the experiment on HOP-92 NSCLC was 32.7 µM; in the experiment on UACC-257 melanoma, greater than 100 µM; in the experiment with SR leukemia, greater than 100 µM; with A549 NSCLC it was greater than 100 µM; with SNB-19 CNS, greater than 100 µM; with SK-OV-3 ovarian, greater than 100 µM. Also, the TGI in the experiment on NCI-H226 lung, in the experiment with SN12C renal, in the experiment with RXF 393 renal and in the experiment with T-47D breast was greater than 100 µM in each case.

On to `COc1nc2ccccc2cc1-c1nc2c(cnn2-c2ccc(Br)cc2)c(=O)[nH]1`, for which the GI50 in the experiment on HOP-92 NSCLC is 0.127 µM; in the experiment on UACC-257 melanoma, 6.77 µM; in the experiment with SR leukemia, 0.0116 µM; with A549 NSCLC, 0.0837 µM; with SNB-19 CNS, 0.0244 µM; with SK-OV-3 ovarian it was 0.0638 µM. In addition, the GI50 in the experiment with NCI-H226 lung was 0.51 µM; in the experiment with SN12C renal it was 0.0739 µM; with RXF 393 renal, 0.0163 µM; in the experiment on T-47D breast, 0.0413 µM. For the same molecule, the TGI in the experiment on HOP-92 NSCLC is greater than 28.3 µM; with UACC-257 melanoma, greater than 50 µM; in the experiment with SR leukemia, 5.41 µM; with A549 NSCLC it was greater than 50 µM; with SNB-19 CNS, 15.1 µM; with SK-OV-3 ovarian, 24.5 µM. Also, the TGI in the experiment with NCI-H226 lung was greater than 50 µM; in the experiment with SN12C renal it was greater than 50 µM; in the experiment on RXF 393 renal, 0.245 µM; in the experiment on T-47D breast it was greater than 50 µM.

The values are drawn from PubChem BioAssay (NCI).
